# US6348485B1, “Method for treating or preventing sleep disorders” (Takeda Chemical Industries, Ltd., priority 1998, dated 2002)
# Experiments:
# [1] = test system: crab-eating macaques (Macaca fascicularis); assay: Sleep latencies at nighttime in monkeys (EEG/EMG/EOG sleep stage classification); format: in vivo; settings: vs control
# Protocol: (§1) Six female crab-eating macaques (Macaca fascicularis), weighing 2.8-4.2 kg, were housed individually in a room maintained at 24±1° C. with a 12-h light/dark cycle (light on 6:00). Under sodium pentobarbital anesthesia, stainless steel screw and bipolar electrodes for electroencephalogram (EEG), electromyogram (EMG) and electro-oculogram (EOG) were implanted. After recovery from surgery, the monkeys were well habituated to the recording chamber (60×60×80 cm) located in a sound-proof and electrically shielded room. Compound A (0.003 mg/kg) and/or triazolam (0.03 mg/kg) were given orally 17:50-17:55. Compound A and triazolam were suspended in 0.5% methylcellulose solution. The control monkey was given 0.5% MC. The behaviors of subjects were observed using a video camera with infrared light sensitivity. EEG, EMG and EOG were recorded on a MO disk with an electroencephalograph (EE5518, NEC Medical Systems, Tokyo, Japan). All recordings were carried out from 18:00 until 6:00. The EEG power spectral analysis was also performed continuously by means of a fast Fourier transform (FFT) system equipped with a personal computer. […] Latencies of each sleep stage (the time until the first appearance of each sleep stage) were determined from 18:00. The occurrence of each sleep stage at nighttime and other sleep parameters were also determined.
# [2] = test system: crab-eating macaques (Macaca fascicularis); assay: Observation of general behavior of monkeys (video camera); format: in vivo; settings: triazolam 0.03 mg/kg p.o. alone
# Protocol: as §1
Structure (SMILES),effect on the sleep latencies ([1]; triazolam 0.03 mg/kg p.o. alone),ataxia and sedation [2],effect on general behavior [2],effect on the latency of any sleep stages ([1]; compound A 0.003 mg/kg p.o. alone)
"Cc1nnc2n1-c1ccc(Cl)cc1C(c1ccccc1Cl)=NC2 [triazolam, 8-chloro-6-(2-chlorophenyl)-1-methyl-4H-[1,2,4]triazolo[4,3-a][1,4]benzodiazepine]",no significant effects,did not cause,did not affect,–
"CCC(=O)NCC[C@@H]1CCc2ccc3c(c21)CCO3 [compound A, (S)-N-[2-(1,6,7,8-tetrahydro-2H-indeno[5,4-b]furan-8-yl)ethyl]propionamide]",–,–,–,no significant effects
